Activity calls are given as the source filed them. The rule behind the calls is not given here.
Assays:
HCT-116 [1] = assay: Inhibition of XRCC2 expression in human HCT-116 cells incubated for 48 hrs Western blot analysis; assay type: functional, cell-based; settings: dose 1.25-5 µM
[2] = Toxicity in BALB/c mouse implanted with human HCT-116 cells assessed as change in body weight at 10 to 40 mg/kg, ip administered for 2 weeks; assay type: organism-based; settings: in vivo, 336 h, dose 10-40 mg/kg
[3] = AUC (0 to t) in male Sprague-Dawley rat at 10 mg/kg, po measured upto 48 hrs by UHPLC-MS/MS analysis; assay type: ADME, organism-based; settings: in vivo
[4] = Acute toxicity in BALB/c mouse assessed as change in spleen weight at 10 to 90 mg/kg, po measured for 7 days; assay type: organism-based; settings: in vivo, 168 h, dose 10-90 mg/kg, time 7 day
[5] = Acute toxicity in BALB/c mouse assessed as change in liver weight at 10 to 90 mg/kg, po measured for 7 days; assay type: organism-based; settings: in vivo, 168 h, dose 10-90 mg/kg, time 7 day
HCT-116 [6] = assay: Inhibition of colony formation in human HCT-116 cells by crystal violet staining based light microscopic analysis; assay type: functional, cell-based; settings: dose 1.25-5 µM
HCT-116 [7] = assay: Induction of DNA damage in human HCT-116 cells assessed as increase in 53BP1 foci positive cells at 1.25 to 5 uM incubated for 48 hrs by immunofluorescence staining based analysis; assay type: functional, cell-based; settings: dose 1.25-5 µM
[8] = Tmax in male Sprague-Dawley rat at 2 mg/kg, iv measured upto 8 hrs by UHPLC-MS/MS analysis; assay type: ADME, organism-based; settings: in vivo
RKO [9] = assay: Inhibition of DNA replication in human RKO cells assessed as reduction in EdU positive cells incubated for 48 hrs by EdU staining based fluorescence microscopic analysis; assay type: functional, cell-based; settings: dose 1.25-5 µM
[10] = Toxicity in BALB/c mouse implanted with human HCT-116 cells assessed as morphological changes in tumor t at 10 to 40 mg/kg, ip administered for 2 weeks by H and E staining based analysis; assay type: organism-based; settings: in vivo, 336 h, dose 10-40 mg/kg
[11] = AUC (0 to infinity) in male Sprague-Dawley rat at 10 mg/kg, po measured upto 48 hrs by UHPLC-MS/MS analysis; assay type: ADME, organism-based; settings: in vivo
[12] = Half life in male Sprague-Dawley rat at 10 mg/kg, po measured upto 48 hrs by UHPLC-MS/MS analysis; assay type: ADME, organism-based; settings: in vivo
[13] = Acute toxicity in BALB/c mouse assessed as change in kidney weight at 10 to 90 mg/kg, po measured for 7 days; assay type: organism-based; settings: in vivo, 168 h, dose 10-90 mg/kg, time 7 day
[14] = AUC (0 to t) in male Sprague-Dawley rat at 2 mg/kg, iv measured upto 8 hrs by UHPLC-MS/MS analysis; assay type: ADME, organism-based; settings: in vivo
[15] = Acute toxicity in BALB/c mouse assessed as change in heart weight at 10 to 90 mg/kg, po measured for 7 days; assay type: organism-based; settings: in vivo, 168 h, dose 10-90 mg/kg, time 7 day
HCT-116 [16] = assay: Antitumor activity against human HCT-116 cells xenografted in BALB/c mouse assessed as inhibition of tumor proliferation at 10 to 40 mg/kg, ip administered for 2 weeks by Ki67 staining based immunohistochemical analysis; assay type: functional, organism-based; settings: dose 10-40 mg/kg
RKO [17] = assay: Antiproliferative activity against human RKO cells incubated for 48 hrs by MTS assay; assay type: functional, cell-based
[18] = AUC (0 to infinity) in male Sprague-Dawley rat at 2 mg/kg, iv measured upto 8 hrs by UHPLC-MS/MS analysis; assay type: ADME, organism-based; settings: in vivo
[19] = Acute toxicity in BALB/c mouse assessed as change in lung weight at 10 to 90 mg/kg, po measured for 7 days; assay type: organism-based; settings: in vivo, 168 h, dose 10-90 mg/kg, time 7 day
[20] = Acute toxicity in BALB/c mouse assessed as morphological change in kidney at 10 to 90 mg/kg, po measured for 7 days by H and E staining based analysis; assay type: organism-based; settings: in vivo, 168 h, dose 10-90 mg/kg, time 7 day
RKO [21] = assay: Inhibition of colony formation in human RKO cells by crystal violet staining based light microscopic analysis; assay type: functional, cell-based; settings: dose 1.25-5 µM
[22] = Half life in male Sprague-Dawley rat at 2 mg/kg, iv measured upto 8 hrs by UHPLC-MS/MS analysis; assay type: ADME, organism-based; settings: in vivo
[23] = Acute toxicity in BALB/c mouse assessed as change in body weight at 10 to 90 mg/kg, po measured for 7 days; assay type: organism-based; settings: in vivo, 168 h, dose 10-90 mg/kg, time 7 day
HCT-116 [24] = assay: Inhibition of BRCA1 expression in human HCT-116 cells incubated for 48 hrs Western blot analysis; assay type: functional, cell-based; settings: dose 1.25-5 µM
HCT-116 [25] = assay: Antitumor activity against human HCT-116 cells xenografted in BALB/c mouse assessed as increase in DNA damage by measuring gamma-H2AX level at 10 to 40 mg/kg, ip administered for 2 weeks by immunohistochemical analysis; assay type: functional, organism-based; settings: dose 10-40 mg/kg
HCT-116 [26] = assay: Inhibition of BRCA1 expression in human HCT-116 cells assessed as reduction in fluorescence intensity at 1.25 to 5 uM incubated for 48 hrs immunofluorescence analysis; assay type: functional, cell-based; settings: dose 1.25-5 µM
HCT-116 [27] = assay: Antitumor activity against human HCT-116 cells xenografted in BALB/c mouse assessed as inhibition of tumor growth at 10 to 40 mg/kg, ip administered for 2 weeks; assay type: functional, organism-based; settings: dose 10-40 mg/kg
[28] = Acute toxicity in BALB/c mouse assessed as change in creatine level at 10 to 90 mg/kg, po measured for 7 days; assay type: organism-based; settings: in vivo, 168 h, dose 10-90 mg/kg, time 7 day
HCT-116 [29] = assay: Inhibition of DNA replication in human HCT-116 cells assessed as reduction in EdU positive cells incubated for 48 hrs by EdU staining based fluorescence microscopic analysis; assay type: functional, cell-based; settings: dose 1.25-5 µM
HCT-116 [30] = assay: Antiproliferative activity against human HCT-116 cells incubated for 48 hrs by MTS assay; assay type: functional, cell-based; settings: HCT-116, 48 h
HCT-116 [31] = assay: Antitumor activity against human HCT-116 cells xenografted in BALB/c mouse assessed as inhibition of BRCA1 expression at 10 to 40 mg/kg, ip administered for 2 weeks by Western blot analysis; assay type: functional, organism-based; settings: dose 10-40 mg/kg
HCT-116 [32] = assay: Induction of cell cycle arrest in human HCT-116 cells at 5 uM incubated for 2 to 48 hrs by PI staining based flow cytometry analysis; assay type: functional; settings: time 2-48 hrs
[33] = Oral bioavailability in male Sprague-Dawley rat at 10 mg/kg measured upto 48 hrs by UHPLC-MS/MS analysis; assay type: ADME, organism-based; settings: in vivo
[34] = Bioavailability in male Sprague-Dawley rat […] by UHPLC-MS/MS analysis; assay type: ADME, organism-based; settings: in vivo
HCT-116 [35] = assay: Inhibition of colony formation in human HCT-116 cells assessed as reduction in colony formation at 5 uM by crystal violet staining based light microscopic analysis; assay type: functional
[36] = Cmax in male Sprague-Dawley rat at 2 mg/kg, iv measured upto 8 hrs by UHPLC-MS/MS analysis; assay type: ADME, organism-based; settings: in vivo
[37] = Cmax in male Sprague-Dawley rat at 10 mg/kg, po measured upto 48 hrs by UHPLC-MS/MS analysis; assay type: ADME, organism-based; settings: in vivo
[38] = Tmax in male Sprague-Dawley rat at 10 mg/kg, po measured upto 48 hrs by UHPLC-MS/MS analysis; assay type: ADME, organism-based; settings: in vivo
HCT-116 [39] = assay: Antitumor activity against human HCT-116 cells xenografted in BALB/c mouse assessed as inhibition of XRCC2 expression at 10 to 40 mg/kg, ip administered for 2 weeks by Western blot analysis; assay type: functional, organism-based; settings: dose 10-40 mg/kg
[40] = Acute toxicity in BALB/c mouse assessed as morphological change in liver at 10 to 90 mg/kg, po measured for 7 days by H and E staining based analysis; assay type: organism-based; settings: in vivo, 168 h, dose 10-90 mg/kg, time 7 day
RKO [41] = assay: Inhibition of colony formation in human RKO cells assessed as reduction in colony formation at 5 uM by crystal violet staining based light microscopic analysis; assay type: functional
[42] = Acute toxicity in BALB/c mouse assessed as change in ALT level at 10 to 90 mg/kg, po measured for 7 days; assay type: organism-based; settings: in vivo, 168 h, dose 10-90 mg/kg, time 7 day
[43] = Acute toxicity in BALB/c mouse assessed as change in AST level at 10 to 90 mg/kg, po measured for 7 days; assay type: organism-based; settings: in vivo, 168 h, dose 10-90 mg/kg, time 7 day

COc1cc2c(c(O)c1C(=O)/C=C/c1ccccc1N1CCN(C)CC1)C=CC(C)(C)O2
inhibition (HCT-116 [1]): Dose-dependent-effect | Activity [2]: Non-toxic | AUC(0-t) at 48 h [3]: 1270 µg·h/mL | Activity [4]: Non-toxic | Activity [5]: Non-toxic | inhibition (HCT-116 [6]): Dose-dependent-effect | Activity (HCT-116 [7]): Active | Tmax [8]: 2.28 min | inhibition (RKO [9]): Dose-dependent-effect | Activity [10]: Non-toxic | AUC(0-inf) [11]: 3 µg·h/mL | half-life [12]: 69.3 h | Activity [13]: Non-toxic | AUC(0-t) at 8 h [14]: 866 µg·h/mL | Activity [15]: Non-toxic | Activity (HCT-116 [16]): Active | IC50 (RKO [17]): 4.01 µM | AUC [18]: 1.61 µg·h/mL | Activity [19]: Non-toxic | Activity [20]: Non-toxic | inhibition (RKO [21]): Dose-dependent-effect | t1/2 [22]: 0.82 h | Activity [23]: Non-toxic | inhibition (HCT-116 [24]): Dose-dependent-effect | Activity (HCT-116 [25]): Active | inhibition (HCT-116 [26]): Active | Activity (HCT-116 [27]): Active | Activity [28]: Non-toxic | inhibition (HCT-116 [29]): Dose-dependent-effect | IC50 (HCT-116 [30]): 5.4 µM | Activity (HCT-116 [31]): Active | Activity (HCT-116 [32]): Active | bioavailability [33]: 37.5% | bioavailability [34]: 37.5% | inhibition at 5 µM (HCT-116 [35]): 2% | Cmax [36]: 359 ng/mL | Cmax [37]: 152 ng/mL | Tmax [38]: 4 h | Activity (HCT-116 [39]): Active | Activity [40]: Non-toxic | inhibition at 5 µM (RKO [41]): 2% | Activity [42]: Non-toxic | Activity [43]: Non-toxic

Reference: ChEMBL document CHEMBL6078725, “Discovery of novel xanthohumol C derivatives regulating XRCC2 transcription and expression for the treatment of colorectal cancer” (Bioorg Med Chem, 2025)
